From US20230270781A1, “TREATMENT OR PREVENTION OF PRO-INFLAMMATORY DISEASES OR CONDITIONS USING INDUCED REGULATORY T (ITREG) CELLS” (RAPA THERAPEUTICS, LLC, priority 2020, published 2023)

Experiments:
Assay type in all cases: cell-based
[1] = test system: human CD4+ and CD8+ T cells; assay: Western blot for mTORC1 complex protein Raptor after 3-day de-differentiation culture
Text: After the 3-day culture interval, the T cells were harvested, and protein was isolated and subjected to western blot analysis for the mTORC1 complex protein, Raptor, and the housekeeping gene, Actin.

[2] = test system: human CD4+ and CD8+ T cells; assay: Western blot for autophagy-related molecule p62 after 3-day de-differentiation culture; conditions: 3-day culture, 1:3 bead-to-T cell ratio; temsirolimus 1.0 or 0.3 µM, Vitamin D 0.01-1.0 nM, Daclizumab 50 µg/ml
Text: After the 3-day culture interval, the T cells were harvested, and protein was isolated and subjected to western blot analysis for the autophagy-related gene, p62, and the housekeeping gene, Actin.

[3] = test system: human CD4+ and CD8+ T cells; assay: RNA expression analysis (Luminex Quantigene) after 3-day de-differentiation culture; conditions: relative to control Th1/Tc1 culture, temsirolimus 1 µM
Experimental: At the end of the de-differentiation interval, cells were harvested, RNA was isolated, and RNA expression analysis was performed by Luminex Quantigene method. All results shown represent relative RNA expression, with results normalized to a value of 1.0 for the Th1/Tc1 control culture.

[4] = test system: human CD4+ and CD8+ T cells; assay: Luminex cytokine analysis of de-differentiated T cells cultured in polarization-neutral media; conditions: Vitamin D concentration during the de-differentiation interval
Experimental: FIGS. 11A-11D depict the inflammatory Th1/Th17 cytokine analysis of cultured de-differentiated T cells in polarization-neutral media. […] After 3-days, the de-differentiated T cells were co-stimulated (typical bead-to-T cell ratio of 3:1) in media supplemented with the T cell growth cytokines rhu IL-2 (100 IU/ml) and rhu IL-7 (10 ng/ml), which are not potent in terms of inducing T cell polarization. After 10 days in culture (total, day 13 of culture), the T cells were harvested, washed, and re-stimulated with 3/28 beads (3:1 ratio) for 24 hr; the resultant supernatant was harvested and tested for cytokine content by Luminex multi-analyte method. All results shown are expressed as cytokine level in pg per ml per 1 × 10^6 cells/ml/24 hr.
FIGS. 12A-12D depicts the IL-2 and Th2-type cytokine analysis of cultured de-differentiated T cells in polarization-neutral media. […] After 3-days, the de-differentiated T cells were co-stimulated (typical bead-to-T cell ratio of 3:1) in media supplemented with the T cell growth cytokines rhu IL-2 (100 IU/ml) and rhu IL-7 (10 ng/ml), which are not potent in terms of inducing T cell polarization. […] All results shown are expressed as cytokine level in pg per ml per 1 × 10^6 cells/ml/24 hr.

[5] = test system: human CD4+ and CD8+ T cells; assay: Western blot for Raptor, Rictor, p70S6K, SGK1 after 3-day de-differentiation culture; conditions: relative to control culture without the three inhibitors; temsirolimus 1 µM, Vitamin D 0.03-1.0 nM, Daclizumab 50 µg/ml
Text: After the 3-day culture interval, the T cells were harvested, and protein was isolated and subjected to western blot analysis for the mTORC1 complex protein, Raptor; the mTORC2 complex protein, Rictor; the post-mTORC1 protein p70S6K; the post-mTORC2 protein, SGK1; and the housekeeping gene, GAPDH.

[6] = test system: human CD4+ and CD8+ T cells; assay: T cell yield at day 13 after de-differentiation interval and re-stimulation without inhibitors; conditions: columns #5 and #6; Vitamin D reduced to 0.01 nM or increased to 1.0 nM
Experimental: After 10 days (13 days of total culture), the T cells were harvested, enumerated, and evaluated by flow cytometry. FIG. 8 illustrates the effect of culture components during the de-differentiation interval on subsequent T cell yield (at day 13 of culture). […] After the 3-day interval, media was exchanged to fresh X-Vivo 20 without inhibitors, high-level co-stimulation was provided (3:1 bead-to-T cell ratio), and the T cell growth cytokines IL-2 (100 IU/ml) and IL-7 (10 ng/ml) were added. At day 13 of culture, viable T cells were enumerated and the overall yield is shown relative to day 0 input number.

[7] = 3-day culture, bead-to-T cell ratio 1:3, Vitamin D 0.1 or 1.0 nM

## C=C1/C(=C\C=C2/CCC[C@]3(C)[C@@H]([C@H](C)CCCC(C)(C)O)CC[C@@H]23)C[C@@H](O)C[C@@H]1O [Vitamin D, 1,25-vitamin D]
[1]; Vitamin D level reduced to 0.01 nM
  Raptor inhibition at Vitamin D 0.01 nM: sub-optimal Raptor inhibition
[1]; culture 7, 0.3 nM Vitamin D, versus 0.1 nM
  Raptor expression at Vitamin D 0.3 nM: higher level of Raptor expression
[2]
  p62 expression (western blot, normalized by actin): increased p62 expression
[3]; [7]
  Granzyme B RNA expression: reduction
  IFN-gamma RNA expression: reduction
  IL-10 RNA expression: reduction
[3]; Vitamin D 1.0 nM
  IL-7 receptor alpha RNA expression: not Vitamin D alone
  KLF4 RNA expression: neither temsirolimus nor Vitamin D alone increased
  KLF10 RNA expression: does not act alone to up-regulate
[3]; Vitamin D 0.1 to 1.0 nM
  HIF-1-α RNA expression: did not down-regulate
  Nanog transcription factor RNA expression: does not act alone to up-regulate
  STAT1 RNA expression: acts alone to beneficially down-regulate
  T-BET RNA expression: acts alone to beneficially down-regulate
[4]
  IFN-γ and TNF-α levels with Vitamin D 0.01 nM relative to 0.1 nM: somewhat higher levels
[5]
  Rictor expression (western blot): effective
[6]
  T cell yield at day 13 with Vitamin D 0.01 nM or 1.0 nM: very low yield
